The source made the active and inactive calls. The calls are words filed in the database; no cut-off is given here.
Experiments:
[1] = species on record: Oryctolagus cuniculus; experiment: (§1) Positive inotropic activity in New Zealand White rabbit beating left atrium assessed as increase in stroke volume at 100 umol/L after 36 mins; assay type: functional; details: Cardiac atrium
[2] = as §1; assay type: functional, Oryctolagus cuniculus, Cardiac atrium
[3] = species on record: Oryctolagus cuniculus; experiment: Positive inotropic activity in New Zealand White rabbit beating left atrium assessed as increase in stroke volume at 300 umol/L after 36 mins; assay type: functional, tissue-based; details: Cardiac atrium
[4] = species on record: Oryctolagus cuniculus; experiment: Positive inotropic activity in New Zealand White rabbit beating left atrium assessed as increase in stroke volume after 36 mins; assay type: functional, tissue-based; details: Cardiac atrium
[5] = species on record: Oryctolagus cuniculus; experiment: Negative inotropic activity in New Zealand White rabbit beating left atrium assessed as decrease in stroke volume at 100 umol/L after incubation for longer period; assay type: functional, tissue-based; details: Cardiac atrium

Row | Compound | Activity [1] | Activity [2] [%] | further results
1 | COc1cc(CN2CCC(C(=O)Nc3ccc4c(c3)CCc3nnc(C)n3-4)CC2)ccc1OCc1c(Cl)cccc1Cl | inactive | – | –
2 | Cc1nnc2n1-c1ccc(NC(=O)C3CCN(Cc4cccc([N+](=O)[O-])c4)CC3)cc1CC2 | – | 8.14 | –
3 | COc1cc(CN2CCC(C(=O)Nc3ccc4c(c3)CCc3nnc(C)n3-4)CC2)ccc1OCc1ccccc1Cl | inactive | – | –
4 | Cc1ccc(CN2CCC(C(=O)Nc3ccc4c(c3)CCc3nnc(C)n3-4)CC2)cc1 | inactive | – | –
5 | COc1cc(CN2CCC(C(=O)Nc3ccc4c(c3)CCc3nnc(C)n3-4)CC2)ccc1OCc1ccc(F)cc1 | inactive | – | –
6 | COc1cc(CN2CCC(C(=O)Nc3ccc4c(c3)CCc3nnc(C)n3-4)CC2)ccc1OCc1cccc(F)c1 | – | 0.18 | –
7 | COc1cc(CN2CCC(C(=O)Nc3ccc4c(c3)CCc3nnc(C)n3-4)CC2)ccc1OCc1ccccc1F | – | 7.41 | Activity [3]: inactive; Activity [4]: Dose-dependent effect
8 | COc1ccc(CN2CCC(C(=O)Nc3ccc4c(c3)CCc3nnc(C)n3-4)CC2)cc1 | inactive | – | –
9 | Cc1nnc2n1-c1ccc(NC(=O)C3CCN(Cc4ccc5c(c4)OCO5)CC3)cc1CC2 | – | 2.96 | –
10 | Cc1nnc2n1-c1ccc(NC(=O)C3CCN(Cc4ccccc4)CC3)cc1CC2 | inactive | – | –
11 | Cc1nnc2n1-c1ccc(NC(=O)C3CCN(Cc4ccc(Cl)cc4)CC3)cc1CC2 | inactive | – | –
12 | Cc1nnc2n1-c1ccc(NC(=O)C3CCN(Cc4ccc(Cl)cc4Cl)CC3)cc1CC2 | – | 7.83 | Activity [5]: Active
13 | Cc1nnc2n1-c1ccc(NC(=O)C3CCN(Cc4ccccc4Br)CC3)cc1CC2 | – | 1.67 | –
14 | Cc1nnc2n1-c1ccc(NC(=O)C3CCN(Cc4ccccc4F)CC3)cc1CC2 | – | 11.92 | Activity [3]: inactive; Activity [4]: Dose-dependent effect
15 | Cc1nnc2n1-c1ccc(NC(=O)C3CCN(Cc4cccc(F)c4)CC3)cc1CC2 | – | 1.56 | –
16 | COc1cc(CN2CCC(C(=O)Nc3ccc4c(c3)CCc3nnc(C)n3-4)CC2)ccc1OCc1ccc(Cl)cc1 | – | 5.13 | Activity [5]: Active

Row | Compound | Activity [1] | Activity [2] [%] | further results
17 | COc1cc(CN2CCC(C(=O)Nc3ccc4c(c3)CCc3nnc(C)n3-4)CC2)ccc1OCc1ccccc1Br | inactive | – | –
18 | COc1cc(CN2CCC(C(=O)Nc3ccc4c(c3)CCc3nnc(C)n3-4)CC2)ccc1OCc1ccccc1 | – | 5.19 | –
19 | Cc1nnc2n1-c1ccc(NC(=O)C3CCN(Cc4ccc(F)cc4)CC3)cc1CC2 | inactive | – | –
20 | COc1cc(CN2CCC(C(=O)Nc3ccc4c(c3)CCc3nnc(C)n3-4)CC2)ccc1OCc1ccccc1[N+](=O)[O-] | inactive | – | –
21 | COc1cc(CN2CCC(C(=O)Nc3ccc4c(c3)CCc3nnc(C)n3-4)CC2)ccc1OCc1ccc(Cl)cc1Cl | – | 2.78 | –
22 | COc1ccc(CN2CCC(C(=O)Nc3ccc4c(c3)CCc3nnc(C)n3-4)CC2)cc1OC | – | 1.87 | –
23 | COc1cc(CN2CCC(C(=O)Nc3ccc4c(c3)CCc3nnc(C)n3-4)CC2)ccc1OCc1cccc([N+](=O)[O-])c1 | inactive | – | –
24 | Cc1nnc2n1-c1ccc(NC(=O)C3CCN(Cc4cccc(Cl)c4)CC3)cc1CC2 | – | 9.97 | –
25 | COc1cc(CN2CCC(C(=O)Nc3ccc4c(c3)CCc3nnc(C)n3-4)CC2)ccc1OCc1cccc(Cl)c1 | – | 5.56 | Activity [5]: Active
26 | Cc1nnc2n1-c1ccc(NC(=O)C3CCN(Cc4ccccc4[N+](=O)[O-])CC3)cc1CC2 | inactive | – | –
27 | COc1ccc(COc2ccc(CN3CCC(C(=O)Nc4ccc5c(c4)CCc4nnc(C)n4-5)CC3)cc2OC)cc1 | – | 6.08 | Activity [5]: Active
28 | Cc1nnc2n1-c1ccc(NC(=O)C3CCN(Cc4c(Cl)cccc4Cl)CC3)cc1CC2 | inactive | – | –
29 | Cc1[nH]c(=O)c(C#N)cc1-c1ccncc1 [MILRINONE] | – | 6.36 | –
30 | Cc1nnc2n1-c1ccc(NC(=O)C3CCN(Cc4ccccc4Cl)CC3)cc1CC2 | – | 0.4 | Activity [5]: Active
31 | COc1ccc(COc2ccc(CN3CCC(C(=O)Nc4ccc5c(c4)CCc4nnc(C)n4-5)CC3)cc2OC)cc1OC | inactive | – | –
32 | COc1cc(CN2CCC(C(=O)Nc3ccc4c(c3)CCc3nnc(C)n3-4)CC2)ccc1OCc1ccc(C)cc1 | inactive | – | –
